{
  "source": "patent US20080269259A1",
  "about": "“Regulation of Autophagy and Cell Survival” (THE TRUSTEES OF THE UNIVERSITY OF PENNSYLVANIA, priority 2005, published 2008)",
  "key": {"Myc/p53ER^TAM lymphomas [1]": {"tested_on": "Myc/p53ER^TAM lymphomas", "assay": "Electron microscopy and quantification of autophagosomes in tumors", "type": "in vivo, mice", "details": "24 hours after initiation of TAM/PBS compared to 48 hours of PBS alone; p<0.0005", "source_text": "Cells were postfixed with 2% osmium tetroxide followed by an increasing gradient dehydration step using ethanol and propylene oxide. […] Data is presented as mean ±SD."}, "cleaved caspase 3": {"tested_on": "cleaved caspase 3", "assay": "Western blot of cleaved caspase 3 in tumor lysates", "type": "in vivo, mice", "details": "lysates obtained at 48 hours; data not shown", "source_text": "Cultured cells were lysed in RIPA buffer. Tumor lysates were obtained by manual agitation of tumor tissue and lysis in RIPA. Lysates were standardized for protein content and resolved by SDS-PAGE on 14% NuPAGE gels (Invitrogen, St Louis, Mo.). Nitrocellulose blots were probed with antibodies against cleaved caspase 3 (rabbit monoclonal antibody; […]) (Cell Signaling, Beverly, Mass.); anti-actin (mouse monoclonal antibody; 1:10,000) (Sigma, St. Louis, Mo.); anti-ATG5 (rabbit polyclonal antibody; 1:2000) (gift from N. Mizushima)."}, "Myc/p53ER^TAM lymphomas [2]": {"tested_on": "Myc/p53ER^TAM lymphomas", "assay": "Myc/p53ER^TAM lymphoma tumor growth, regression and recurrence in syngeneic mice", "type": "in vivo", "procedure": "All experiments were performed in accordance with approved animal safety protocols. All experiments were carried out using 8-10 week old C57BL/6X129F1 mice obtained from The Jackson Laboratory (Bar Harbor, Me.). Bone marrow cell harvest and production of bone marrow-derived neoplasms followed the protocol previously described. After primary tumor formation, tumor cells were harvested in ice cold PBS by passage through a […] nylon mesh (BD Bioscience, Bedford, Md.) and expanded in vivo by subcutaneous injection into the flanks of syngeneic mice. For tissue analysis, all animals were sacrificed individually by CO2 asphyxiation and tissue was harvested immediately. Tumors were harvested in ice cold PBS. For each tumor, sections of visually viable tumor tissue were fixed in 10% formalin for preparation of paraffin-embedded sections, glutaraldehyde for electron microscopy (see below). Tumor cell lysates were achieved through manual agitation of remaining tumor tissue in RIPA buffer.\n(§1) For tamoxifen (TAM) treatment, the hormone powder (Sigma, St. Louis) was dispersed, via sonication, in peanut oil (Sigma) at a concentration of 10 mg/mL. The administration of TAM was done via daily IP injections at the dose of 1 mg per mouse.\n(§2) 4-hydroxytamoxifen (hTAM) (Sigma) was dissolved in ethanol. Cyclophosphamide (Sigma) was dissolved in PBS. Tumors were measured on a daily basis using calipers and tumor volume was calculated using the formula: (mm^3)=AxBx[A+B]/2"}, "[3]": {"tested_on": "Myc/p53ER^TAM/GFP-LC3 cells", "assay": "GFP-LC3 fluorescence imaging", "type": "cell-based, mice", "details": "hTAM 250 mM, CQ 5 pM as printed; 48 hours"}, "Bax^−/−Bak^−/− cells [4]": {"tested_on": "Bax^−/−Bak^−/− cells", "assay": "ATP levels in growth factor-deprived cells", "type": "cell-based, mice", "details": "IL-3 deprived cells; for ATP levels: 8 hours after addition of drug", "procedure": "The conversion of 5-^3H-glucose to ^3H2O was used to measure the glycolytic rate. The level of ATP was measured as described previously."}, "Bax^−/−Bak^−/− cells [5]": {"tested_on": "Bax^−/−Bak^−/− cells", "assay": "Viability of IL-3 dependent Bax−/−Bak−/− cells (propidium iodide exclusion)", "type": "cell-based, mice", "details": "for effect on survival of cells grown in the presence of IL-3 / death of the cells in the cultures: 5 mM 3-MA or 10 μM CQ; for effect on survival of cells grown in the presence of IL-3: IL-3 present; for death of the cells in the cultures: by 48 hours, cells deprived of growth factor for 6 weeks", "procedure": "Immortalized IL-3 dependent cells were obtained from the bone marrow of two independent Bax^−/−Bak^−/− mice using previously established protocols. Subsequent experiments using these cells were performed in complete media consisting of: RPMI 1640 medium (Invitrogen) supplemented with 10% heat inactivated fetal bovine serum (Gemini), 10 units/mL penicillin/streptomycin and 2 mM L-glutamine (Invitrogen), 50 μm β-mercaptoethanol (Sigma) and 10 mM HEPES (Invitrogen). For cells grown in the presence of IL-3, the complete medium was supplemented with 3.5 ng/mL of murine recombinant IL-3 (BD Pharmingen). For IL-3 withdrawal experiments, cells were washed three times in medium without IL-3 and serum. After the final wash, cells were resuspended in complete medium without IL-3. Medium for cells cultured in the absence of IL-3 was replaced with fresh complete medium without IL-3 every 10 days. […] Cell size and number was assessed by using a Coulter Z2 particle analyzer. For readdition experiments, cells grown in the absence of IL-3 at the indicated time points were pelleted by centrifugation and resuspended in complete media containing 3.5 ng/mL IL-3. The FL5.12 cell line was maintained in complete media supplemented with 0.35 ng/mL IL-3. For measurement of mitochondrial membrane potential, cells were incubated for 30 minutes with 50 nM of tetramethyl rhodamine ethyl ester (TMRE; Molecular Probes) in the presence or absence of 50 μM CCCP (Sigma). Viability was performed by incubating cells with annexin V conjugated fluorescein isothiocyanate (BD Pharmingen) in buffer containing 1 μg/mL propidium iodide (Molecular Probes) followed by FACS analysis. DNA fragmentation assay was performed as previously described."}, "LC3": {"tested_on": "LC3", "assay": "LC3 immunofluorescence staining of autophagosomes", "type": "cell-based, mice", "details": "cells without IL-3 for 6 weeks, 18 hours of 5 mM 3-MA or 10 μM CQ", "procedure": "Antibodies (all 1:1000 dilution) used were: GLUT1 (Research Diagnostic Inc.), calreticulin (StressGen), STAT3 (Cell Signalling), actin (Sigma), LC3 (gift from T. Yoshimori), ATG5 (gift from N. Mizushima), Bax (Santa Cruz) and Bak (Upstate Technologies). For immunofluorescence staining, cells were fixed in 4% paraformaldehyde and permeabilized with 0.1% Triton X-100, washed 3 times (PBS containing 0.01% Triton X-100 and 10% FBS), followed by incubation with […]. […] Images were captured using a Zeiss 510 confocal microscope. For surface analysis, cells were fixed in 4% paraformaldehyde, stained with 1:100 biotin-anti-IL-3 alpha chain receptor (BD Pharmingen) and a 1:100 dilution of streptavidin conjugated fluorescein isothiocyanate (BD Pharmingen) followed by FACS analysis."}, "[6]": {"assay": "Observed toxicity in treated tumor-bearing mice", "procedure": "as §1, §2"}, "[7]": {"tested_on": "Myc/p53ER^TAM lymphoma cells", "assay": "In vitro growth of Myc/p53ER^TAM lymphoma cells (cell number)", "type": "cell-based, mice", "details": "Mus musculus, 96 h; cell number measured on day 4, medium changed daily, single agent; read-out: IC50, impairment of lymphoma cell growth", "source_text": "For all in vitro experiments media+supplements and drugs treatments were changed daily."}},
  "data": [
    {"compound": "CC/C(=C(\\c1ccccc1)c1ccc(OCCN(C)C)cc1)c1ccccc1", "note": "[TAM/PBS, tamoxifen]", "values": [
      {"measurement": "increase of percentage of tumor cells with autophagosomes", "setting": "Myc/p53ER^TAM lymphomas [1]", "result": 30, "unit": "fold"},
      {"measurement": "cleaved caspase 3 in tumor lysates", "setting": "cleaved caspase 3", "result": "absent"},
      {"measurement": "mice with complete clinical regression of their tumor", "setting": "Myc/p53ER^TAM lymphomas [2]; TAM/CQ and TAM/HCQ pooled in one figure, p<0.005", "result": 8, "unit": "%"}
    ]},
    {"compound": "4-hydroxytamoxifen [hTAM]", "values": [
      {"measurement": "punctate GFP-LC3 fluorescence", "setting": "[3]", "result": "increased number of punctate LC3 associated vesicles"}
    ]},
    {"compound": "COC(=O)C(C)=O", "note": "[methyl pyruvate]", "values": [
      {"measurement": "effect on ATP decline caused by 3-MA or CQ", "setting": "Bax^−/−Bak^−/− cells [4]; 10 mM MP, 8 hours", "result": "could be suppressed"},
      {"measurement": "effect on death observed in response to 3-MA and CQ", "setting": "Bax^−/−Bak^−/− cells [5]; 10 mM methyl pyruvate added at the time of 3-MA or CQ treatment, IL-3 deprived 6 weeks", "result": "suppressed the death"}
    ]},
    {"compound": "Cn1cnc(N)c2ncnc1-2", "note": "[3-MA, 3-methyladenine]", "values": [
      {"measurement": "ATP levels", "setting": "Bax^−/−Bak^−/− cells [4]", "result": "dramatic decline in ATP levels"},
      {"measurement": "number of autophagosomes (LC3 redistribution from punctate to diffuse staining)", "setting": "LC3", "result": "reduction in the number of autophagosomes"},
      {"measurement": "effect on survival of cells grown in the presence of IL-3", "setting": "Bax^−/−Bak^−/− cells [5]", "result": "no significant effect"},
      {"measurement": "death of the cells in the cultures", "setting": "Bax^−/−Bak^−/− cells [5]", "result": 72, "unit": "%"}
    ]},
    {"compound": "CCN(CC)CCCC(C)Nc1ccnc2cc(Cl)ccc12", "note": "(centres unmarked) [CQ, chloroquine]", "values": [
      {"measurement": "ATP levels", "setting": "Bax^−/−Bak^−/− cells [4]", "result": "dramatic decline in ATP levels"},
      {"measurement": "number of autophagosomes (LC3 redistribution from punctate to diffuse staining)", "setting": "LC3", "result": "reduction in the number of autophagosomes"},
      {"measurement": "tumor regression", "setting": "Myc/p53ER^TAM lymphomas [2]; CQ 50 or 60 mg/kg/day IP daily, single agent", "result": "not observed"},
      {"measurement": "average time to tumor recurrence", "setting": "Myc/p53ER^TAM lymphomas [2]; cyclophosphamide 50 mg/kg IP once followed by daily CQ 60 mg/kg/day IP for 13 days", "result": "12.5 ± 6.6", "unit": "days"},
      {"measurement": "effect on survival of cells grown in the presence of IL-3", "setting": "Bax^−/−Bak^−/− cells [5]", "result": "no significant effect"},
      {"measurement": "death of the cells in the cultures", "setting": "Bax^−/−Bak^−/− cells [5]", "result": 82, "unit": "%"},
      {"measurement": "punctate GFP-LC3 fluorescence", "setting": "[3]", "result": "Some punctate GFP-LC3 fluorescence"},
      {"measurement": "additional toxicity in treated animals", "setting": "[6]; CQ cotreatment with TAM or with cyclophosphamide", "result": "did not result in additional toxicity"},
      {"measurement": "observed toxicity", "setting": "[6]; daily IP 50 mg/kg/day or 60 mg/kg/day", "result": "no observed toxicity"},
      {"measurement": "tolerability of systemic administration", "setting": "[6]; for up to 20 days", "result": "well tolerated"},
      {"measurement": "IC50", "setting": "[7]", "result": 3, "unit": "µM"}
    ]},
    {"compound": "O=P1(N(CCCl)CCCl)NCCCO1", "note": "(centres unmarked) [cyclophosphamide]", "values": [
      {"measurement": "average time to tumor recurrence", "setting": "Myc/p53ER^TAM lymphomas [2]; cyclophosphamide 50 mg/kg IP once followed by daily PBS", "result": "5.25 ± 1.9", "unit": "days"},
      {"measurement": "tumor regression", "setting": "Myc/p53ER^TAM lymphomas [2]; single dose cyclophosphamide 50 mg/kg IP with or without CQ", "result": "complete tumor regression in all treated mice"}
    ]}
  ]
}
